Test results taken from PubChem BioAssay AID270 (DTP/NCI, 2004).
Results filed as inconclusive are left out.

Test system: BDF1 mice, s.c. Lewis lung carcinoma, T/C %
Assay: NCI In Vivo Anticancer Drug Screen. Data for tumor model Lewis Lung Carcinoma (subcutaneous) in B6D2F1 (BDF1) mice
Experimental: The antitumor activity of compounds was measured in mice bearing transplantable tumors. Survival or tumor size were measured and the results are expressed as the measurement made in the treated group (T) divided by the measurement made in the vehicle treated control group (C). The tumor model used in this assay is Lewis Lung Carcinoma (subcutaneous) in B6D2F1 (BDF1) mice

[1] = endpoint: mean tumor weight, dose: 200.0 mg/kg/injection, schedule: Q01DX011 (ip), vehicle: other, higher = larger tumour
[2] = endpoint: mean tumor weight, dose: 12.5 mg/kg/injection, schedule: Q01DX011 (ip), vehicle: saline, higher = larger tumour
[3] = endpoint: mean tumor weight, dose: 25.0 mg/kg/injection, schedule: Q01DX011 (ip), vehicle: saline, higher = larger tumour
[4] = endpoint: mean tumor weight, dose: 50.0 mg/kg/injection, schedule: Q01DX011 (ip), vehicle: saline, higher = larger tumour
[5] = endpoint: mean tumor weight, dose: 62.5 mg/kg/injection, schedule: Q01DX011 (ip), vehicle: saline, higher = larger tumour
[6] = endpoint: mean tumor weight, dose: 500.0 mg/kg/injection, schedule: Q01DX011 (ip), vehicle: saline, higher = larger tumour

## CCCCCCCCCCCCO[P+](=O)OCCCCCCCCCCCC
endpoint: mean tumor weight, dose: 50.0 mg/kg/injection, schedule: Q01DX011 (ip), vehicle: other, higher = larger tumour
  T/C: 122 % of control
endpoint: mean tumor weight, dose: 100.0 mg/kg/injection, schedule: Q01DX011 (ip), vehicle: other, higher = larger tumour
  T/C: 98 % of control
[1]
  T/C: 76 % of control
endpoint: mean tumor weight, dose: 400.0 mg/kg/injection, schedule: Q01DX011 (ip), vehicle: other, higher = larger tumour
  T/C: 65 % of control
endpoint: mean tumor weight, dose: 400.0 mg/kg/injection, schedule: Q01DX011 (ip), vehicle: saline, higher = larger tumour
  T/C: 36 % of control
endpoint: mean tumor weight, dose: 600.0 mg/kg/injection, schedule: Q01DX011 (ip), vehicle: saline, higher = larger tumour
  T/C: 19 % of control
endpoint: mean tumor weight, dose: 900.0 mg/kg/injection, schedule: Q01DX011 (ip), vehicle: saline, higher = larger tumour
  T/C: 21 % of control
endpoint: median survival time, dose: 50.0 mg/kg/injection, schedule: Q01DX009 (ip), vehicle: saline, higher = longer survival
  T/C: 108 % of control
endpoint: median survival time, dose: 100.0 mg/kg/injection, schedule: Q01DX009 (ip), vehicle: saline, higher = longer survival
  T/C: 99 % of control

## CC[C@](O)(C(=O)O)c1cc2n(c(=O)c1CO)Cc1cc3ccccc3nc1-2
endpoint: median survival time, dose: 1.0 mg/kg/injection, schedule: Q01DX009 (ip), vehicle: saline, higher = longer survival
  T/C: 117 % of control
endpoint: median survival time, dose: 2.0 mg/kg/injection, schedule: Q01DX009 (ip), vehicle: saline, higher = longer survival
  T/C: 92 % of control

## O=C1N[C@@H]([C@H]2CC[C@H](Cl)CN2)C(=O)N[C@H]1[C@H]1CC[C@H](Cl)CN1
endpoint: median survival time, dose: 2.7 mg/kg/injection, schedule: Q01DX009 (ip), vehicle: saline, higher = longer survival
  T/C: 102 % of control
endpoint: median survival time, dose: 4.4 mg/kg/injection, schedule: Q04DX003 (ip), vehicle: saline, higher = longer survival
  T/C: 99 % of control
endpoint: median survival time, dose: 6.5 mg/kg/injection, schedule: Q04DX003 (ip), vehicle: saline, higher = longer survival
  T/C: 105 % of control
endpoint: median survival time, dose: 9.0 mg/kg/injection, schedule: Q01DX001 (ip), vehicle: saline, higher = longer survival
  T/C: 91 % of control
endpoint: median survival time, dose: 13.0 mg/kg/injection, schedule: Q01DX001 (ip), vehicle: saline, higher = longer survival
  T/C: 101 % of control
endpoint: median survival time, dose: 20.0 mg/kg/injection, schedule: Q01DX001 (ip), vehicle: saline, higher = longer survival
  T/C: 100 % of control

## CCc1c(CC(=O)O)c2cc(C)ccc2n1Cc1ccc(Cl)cc1
[2]
  T/C: 72 % of control
[3]
  T/C: 104 % of control
[4]
  T/C: 70 % of control

## O=C(/C=C/c1ccc(O)c(O)c1)c1ccc(O)c(O)c1O
[2]
  T/C: 57 % of control
[3]
  T/C: 89 % of control
[4]
  T/C: 64 % of control
endpoint: mean tumor weight, dose: 100.0 mg/kg/injection, schedule: Q01DX011 (ip), vehicle: saline, higher = larger tumour
  T/C: 59 % of control

## Cc1cn(C2OC(CO)C(O)C2O)c(=O)[nH]c1=O (centres undefined)
[5]
  T/C: 94 % of control
[6]
  T/C: 109 % of control

## O=CNCCNC=O
endpoint: mean tumor weight, dose: 148.0 mg/kg/injection, schedule: Q01DX011 (ip), vehicle: saline, higher = larger tumour
  T/C: 96 % of control
endpoint: mean tumor weight, dose: 333.0 mg/kg/injection, schedule: Q01DX011 (ip), vehicle: saline, higher = larger tumour
  T/C: 98 % of control
[6]
  T/C: 115 % of control

## CCS(=O)(=O)Nc1cccc(Nc2c3cccc(C)c3nc3c(C)cccc23)c1OC
endpoint: median survival time, dose: 12.5 mg/kg/injection, schedule: Q01DX011 (ip), vehicle: saline with Tween-80, higher = longer survival
  T/C: 111 % of control
endpoint: median survival time, dose: 25.0 mg/kg/injection, schedule: Q01DX011 (ip), vehicle: saline with Tween-80, higher = longer survival
  T/C: 101 % of control
endpoint: median tumor weight (est.), dose: 12.5 mg/kg/injection, schedule: Q01DX011 (ip), vehicle: saline with Tween-80, higher = larger tumour
  T/C: 82 % of control
endpoint: median tumor weight (est.), dose: 25.0 mg/kg/injection, schedule: Q01DX011 (ip), vehicle: saline with Tween-80, higher = larger tumour
  T/C: 44 % of control

## OCCc1ccccc1
[5]
  T/C: 95 % of control
endpoint: mean tumor weight, dose: 125.0 mg/kg/injection, schedule: Q01DX011 (ip), vehicle: saline, higher = larger tumour
  T/C: 107 % of control
endpoint: mean tumor weight, dose: 250.0 mg/kg/injection, schedule: Q01DX011 (ip), vehicle: saline, higher = larger tumour
  T/C: 75 % of control

## Cc1cccc(C)c1[N+](=O)[O-]
endpoint: mean tumor weight, dose: 133.0 mg/kg/injection, schedule: Q01DX011 (ip), vehicle: other, higher = larger tumour
  T/C: 88 % of control
[1]
  T/C: 66 % of control
endpoint: mean tumor weight, dose: 300.0 mg/kg/injection, schedule: Q01DX011 (ip), vehicle: other, higher = larger tumour
  T/C: 67 % of control
